# Key:
# [1] = molecular target: Mitogen-activated protein kinase kinase kinase kinase 2 (Homo sapiens) (UniProt Q12851); details: Compound concentration 1000.0 nM
# [2] = molecular target: Mitogen-activated protein kinase 4 (Homo sapiens) (UniProt P31152); details: Compound concentration 1000.0 nM
# [3] = molecular target: Phosphatidylinositol 4,5-bisphosphate 3-kinase catalytic subunit delta isoform (Homo sapiens) (UniProt O00329); details: Compound concentration 1000.0 nM
# [4] = molecular target: 5'-AMP-activated protein kinase catalytic subunit alpha-1 (Homo sapiens) (UniProt Q13131); details: Compound concentration 1000.0 nM
# 5'-AMP-activated protein kinase catalytic subunit alpha-1 (Homo sapiens), sequence (Q13131 whole entry, looked up): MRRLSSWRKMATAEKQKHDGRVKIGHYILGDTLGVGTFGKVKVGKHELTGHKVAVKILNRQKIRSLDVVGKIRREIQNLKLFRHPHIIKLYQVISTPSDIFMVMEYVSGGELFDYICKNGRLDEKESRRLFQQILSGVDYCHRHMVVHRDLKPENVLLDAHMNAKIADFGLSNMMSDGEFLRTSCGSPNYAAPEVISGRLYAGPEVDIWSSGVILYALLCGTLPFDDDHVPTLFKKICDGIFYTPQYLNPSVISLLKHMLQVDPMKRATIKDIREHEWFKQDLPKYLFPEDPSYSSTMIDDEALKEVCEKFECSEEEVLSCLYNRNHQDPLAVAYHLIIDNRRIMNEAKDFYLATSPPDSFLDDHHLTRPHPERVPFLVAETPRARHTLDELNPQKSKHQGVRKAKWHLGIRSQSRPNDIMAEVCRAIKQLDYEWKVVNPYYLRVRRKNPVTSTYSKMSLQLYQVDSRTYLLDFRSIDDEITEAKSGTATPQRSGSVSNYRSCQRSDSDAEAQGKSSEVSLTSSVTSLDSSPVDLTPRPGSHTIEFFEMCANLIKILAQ
# [5] = molecular target: Fibroblast growth factor receptor 1 (Homo sapiens) (UniProt P11362); details: Compound concentration 1000.0 nM
# [6] = molecular target: Serine/threonine-protein kinase 25 (Homo sapiens) (UniProt O00506); details: Compound concentration 1000.0 nM
# Serine/threonine-protein kinase 25 (Homo sapiens), sequence (O00506 whole entry, looked up): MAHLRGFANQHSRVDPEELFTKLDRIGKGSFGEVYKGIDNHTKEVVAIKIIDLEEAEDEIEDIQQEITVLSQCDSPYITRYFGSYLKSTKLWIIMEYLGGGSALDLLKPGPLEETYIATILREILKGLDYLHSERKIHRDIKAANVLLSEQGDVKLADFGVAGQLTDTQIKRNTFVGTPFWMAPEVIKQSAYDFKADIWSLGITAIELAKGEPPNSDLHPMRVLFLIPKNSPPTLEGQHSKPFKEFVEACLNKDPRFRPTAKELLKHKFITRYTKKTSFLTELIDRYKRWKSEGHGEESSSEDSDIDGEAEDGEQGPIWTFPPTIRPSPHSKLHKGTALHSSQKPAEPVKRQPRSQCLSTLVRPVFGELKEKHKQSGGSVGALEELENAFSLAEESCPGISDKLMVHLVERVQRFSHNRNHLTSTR
# [7] = molecular target: Ephrin type-B receptor 3 (Homo sapiens) (UniProt P54753); details: Compound concentration 1000.0 nM
# [8] = molecular target: Phosphatidylinositol 4-phosphate 5-kinase type-1 gamma (Homo sapiens) (UniProt O60331); details: Compound concentration 1000.0 nM
# [9] = system: Proto-oncogene tyrosine-protein kinase receptor Ret (Homo sapiens), P07949 [M918T]; details: Compound concentration 1000.0 nM
# [10] = molecular target: Mu-type opioid receptor (Homo sapiens) (UniProt P35372); details: Compound concentration 10.0 uM
# [11] = molecular target: Serine/threonine-protein kinase 36 (Homo sapiens) (UniProt Q9NRP7); details: Compound concentration 1000.0 nM
# [12] = molecular target: Protein-tyrosine kinase 6 (Homo sapiens) (UniProt Q13882); details: Compound concentration 1000.0 nM
# [13] = molecular target: Mitotic checkpoint serine/threonine-protein kinase BUB1 (Homo sapiens) (UniProt O43683); details: Compound concentration 1000.0 nM
# [14] = molecular target: Serine/threonine-protein kinase Sgk2 (Homo sapiens) (UniProt Q9HBY8); details: Compound concentration 1000.0 nM
# [15] = molecular target: Serine/threonine-protein kinase Nek9 (Homo sapiens) (UniProt Q8TD19); details: Compound concentration 1000.0 nM
# [16] = molecular target: Dual specificity tyrosine-phosphorylation-regulated kinase 2 (Homo sapiens) (UniProt Q92630); details: Compound concentration 1000.0 nM
# [17] = molecular target: Serine/threonine-protein kinase tousled-like 1 (Homo sapiens) (UniProt Q9UKI8); details: Compound concentration 1000.0 nM
# [18] = molecular target: Inhibitor of nuclear factor kappa-B kinase subunit alpha (Homo sapiens) (UniProt O15111); details: Compound concentration 1000.0 nM
# [19] = system: Mast/stem cell growth factor receptor Kit (Homo sapiens), P10721 [V559D]; details: Compound concentration 1000.0 nM
# [20] = molecular target: Receptor tyrosine-protein kinase erbB-4 (Homo sapiens) (UniProt Q15303); details: Compound concentration 1000.0 nM
# [21] = molecular target: High affinity nerve growth factor receptor (Homo sapiens) (UniProt P04629); details: Compound concentration 1000.0 nM
# [22] = molecular target: Ephrin type-A receptor 2 (Homo sapiens) (UniProt P29317); details: Compound concentration 1000.0 nM
# [23] = system: Epidermal growth factor receptor (Homo sapiens), P00533 [UNDEFINED MUTATION]; details: Compound concentration 1000.0 nM
# [24] = molecular target: Rhodopsin kinase GRK7 (Homo sapiens) (UniProt Q8WTQ7); details: Compound concentration 1000.0 nM
# [25] = molecular target: Protein-tyrosine kinase 2-beta (Homo sapiens) (UniProt Q14289); details: Compound concentration 1000.0 nM
# [26] = system: Phosphatidylinositol 4,5-bisphosphate 3-kinase catalytic subunit alpha isoform (Homo sapiens), P42336 [H1047Y]; details: Compound concentration 1000.0 nM
# [27] = molecular target: Cytoplasmic tyrosine-protein kinase BMX (Homo sapiens) (UniProt P51813); details: Compound concentration 1000.0 nM
# [28] = molecular target: Macrophage colony-stimulating factor 1 receptor (Homo sapiens) (UniProt P07333); details: Compound concentration 1000.0 nM
# Macrophage colony-stimulating factor 1 receptor (Homo sapiens), sequence (P07333 whole entry): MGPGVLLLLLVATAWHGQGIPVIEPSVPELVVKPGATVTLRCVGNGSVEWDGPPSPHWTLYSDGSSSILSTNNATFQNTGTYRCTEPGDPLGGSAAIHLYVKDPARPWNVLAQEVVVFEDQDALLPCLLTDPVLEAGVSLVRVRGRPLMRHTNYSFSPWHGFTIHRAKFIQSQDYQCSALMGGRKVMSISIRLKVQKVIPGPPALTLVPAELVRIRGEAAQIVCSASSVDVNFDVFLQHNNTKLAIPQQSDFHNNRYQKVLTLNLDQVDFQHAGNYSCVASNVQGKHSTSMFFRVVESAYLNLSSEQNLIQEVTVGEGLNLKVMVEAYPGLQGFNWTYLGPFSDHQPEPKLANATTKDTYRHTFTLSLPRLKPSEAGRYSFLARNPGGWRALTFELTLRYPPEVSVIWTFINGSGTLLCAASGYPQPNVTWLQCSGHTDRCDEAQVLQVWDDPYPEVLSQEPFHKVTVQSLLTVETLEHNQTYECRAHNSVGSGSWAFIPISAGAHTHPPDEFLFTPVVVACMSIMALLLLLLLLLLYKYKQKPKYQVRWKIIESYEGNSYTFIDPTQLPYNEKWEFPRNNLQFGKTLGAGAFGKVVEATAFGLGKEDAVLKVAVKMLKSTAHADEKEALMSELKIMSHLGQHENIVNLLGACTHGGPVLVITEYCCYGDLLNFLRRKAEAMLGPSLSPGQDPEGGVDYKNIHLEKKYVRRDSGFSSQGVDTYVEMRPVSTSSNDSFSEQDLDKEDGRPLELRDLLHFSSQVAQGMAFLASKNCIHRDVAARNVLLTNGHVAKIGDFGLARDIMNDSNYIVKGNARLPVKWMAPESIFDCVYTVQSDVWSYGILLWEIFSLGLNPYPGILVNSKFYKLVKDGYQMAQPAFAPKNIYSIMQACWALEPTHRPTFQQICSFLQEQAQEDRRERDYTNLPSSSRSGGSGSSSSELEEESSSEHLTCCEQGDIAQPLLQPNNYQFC
# [29] = molecular target: Mitogen-activated protein kinase kinase kinase 2 (Homo sapiens) (UniProt Q9Y2U5); details: Compound concentration 1000.0 nM
# [30] = molecular target: RAF proto-oncogene serine/threonine-protein kinase (Homo sapiens) (UniProt P04049); details: Compound concentration 1000.0 nM
# [31] = system: Receptor-type tyrosine-protein kinase FLT3 (Homo sapiens), P36888 [K663Q]; details: Compound concentration 1000.0 nM
# [32] = molecular target: Cyclin-dependent kinase-like 2 (Homo sapiens) (UniProt Q92772); details: Compound concentration 1000.0 nM
# [33] = molecular target: Wee1-like protein kinase (Homo sapiens) (UniProt P30291); details: Compound concentration 1000.0 nM
# [34] = molecular target: Protein kinase C iota type (Homo sapiens) (UniProt P41743); details: Compound concentration 1000.0 nM
# [35] = molecular target: Beta-2 adrenergic receptor (Homo sapiens) (UniProt P07550); details: Compound concentration 10.0 uM
# [36] = system: Fibroblast growth factor receptor 3 (Homo sapiens), P22607 [G697C]; details: Compound concentration 1000.0 nM
# Fibroblast growth factor receptor 3 (Homo sapiens), P22607 [G697C], sequence (P22607 whole entry G697C): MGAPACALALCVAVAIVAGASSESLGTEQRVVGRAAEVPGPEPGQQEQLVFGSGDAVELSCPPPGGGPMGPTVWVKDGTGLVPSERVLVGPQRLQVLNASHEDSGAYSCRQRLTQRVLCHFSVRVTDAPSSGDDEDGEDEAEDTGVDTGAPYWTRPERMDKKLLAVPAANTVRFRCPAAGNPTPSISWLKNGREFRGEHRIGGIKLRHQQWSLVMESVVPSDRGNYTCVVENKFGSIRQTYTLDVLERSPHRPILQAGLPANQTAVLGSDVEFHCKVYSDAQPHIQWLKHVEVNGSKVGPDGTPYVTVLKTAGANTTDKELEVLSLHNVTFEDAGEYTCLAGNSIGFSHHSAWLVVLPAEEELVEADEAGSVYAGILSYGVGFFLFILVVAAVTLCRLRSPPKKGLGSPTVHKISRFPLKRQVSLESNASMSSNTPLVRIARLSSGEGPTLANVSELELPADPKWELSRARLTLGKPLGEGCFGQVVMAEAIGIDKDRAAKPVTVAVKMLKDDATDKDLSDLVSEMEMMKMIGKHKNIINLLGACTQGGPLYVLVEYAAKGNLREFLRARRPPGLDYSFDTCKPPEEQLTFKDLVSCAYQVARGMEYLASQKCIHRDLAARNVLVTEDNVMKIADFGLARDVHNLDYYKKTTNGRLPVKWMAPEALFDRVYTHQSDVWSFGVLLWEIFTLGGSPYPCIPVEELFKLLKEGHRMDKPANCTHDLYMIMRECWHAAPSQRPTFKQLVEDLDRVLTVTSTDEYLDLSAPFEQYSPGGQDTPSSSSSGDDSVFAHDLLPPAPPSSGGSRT
# [37] = molecular target: Serine/threonine-protein kinase 35 (Homo sapiens) (UniProt Q8TDR2); details: Compound concentration 1000.0 nM
# [38] = molecular target: Macrophage colony-stimulating factor 1 receptor (Homo sapiens) (UniProt P07333); details: Compound concentration 1000.0 nM; remark: listed apart in the source
# [39] = molecular target: Wee1-like protein kinase 2 (Homo sapiens) (UniProt P0C1S8); details: Compound concentration 1000.0 nM
# Wee1-like protein kinase 2 (Homo sapiens), sequence (P0C1S8 whole entry, looked up): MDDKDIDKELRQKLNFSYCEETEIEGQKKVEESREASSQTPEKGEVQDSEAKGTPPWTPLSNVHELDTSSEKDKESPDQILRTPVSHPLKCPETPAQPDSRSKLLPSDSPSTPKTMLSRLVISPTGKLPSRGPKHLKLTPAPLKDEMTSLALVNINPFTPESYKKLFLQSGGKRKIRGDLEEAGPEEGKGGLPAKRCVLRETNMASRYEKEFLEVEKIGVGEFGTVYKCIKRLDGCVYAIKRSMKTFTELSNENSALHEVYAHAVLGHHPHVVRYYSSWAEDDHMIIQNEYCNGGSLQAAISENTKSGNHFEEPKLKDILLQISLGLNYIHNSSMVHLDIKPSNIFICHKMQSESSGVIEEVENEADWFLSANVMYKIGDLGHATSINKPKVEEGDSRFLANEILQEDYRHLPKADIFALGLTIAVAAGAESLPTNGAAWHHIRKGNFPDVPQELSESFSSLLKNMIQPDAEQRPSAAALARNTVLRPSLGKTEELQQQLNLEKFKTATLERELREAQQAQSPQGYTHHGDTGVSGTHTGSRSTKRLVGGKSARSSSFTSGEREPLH
# [40] = molecular target: Dual specificity mitogen-activated protein kinase kinase 5 (Homo sapiens) (UniProt Q13163); details: Compound concentration 1000.0 nM
# [41] = molecular target: Angiopoietin-1 receptor (Homo sapiens) (UniProt Q02763); details: Compound concentration 1000.0 nM
# [42] = molecular target: Serine/threonine-protein kinase 17B (Homo sapiens) (UniProt O94768); details: Compound concentration 1000.0 nM
# [43] = molecular target: Cyclin-dependent kinase 4 (Homo sapiens) (UniProt P11802); details: Compound concentration 1000.0 nM
# Cyclin-dependent kinase 4 (Homo sapiens), sequence (P11802 whole entry, canonical isoform): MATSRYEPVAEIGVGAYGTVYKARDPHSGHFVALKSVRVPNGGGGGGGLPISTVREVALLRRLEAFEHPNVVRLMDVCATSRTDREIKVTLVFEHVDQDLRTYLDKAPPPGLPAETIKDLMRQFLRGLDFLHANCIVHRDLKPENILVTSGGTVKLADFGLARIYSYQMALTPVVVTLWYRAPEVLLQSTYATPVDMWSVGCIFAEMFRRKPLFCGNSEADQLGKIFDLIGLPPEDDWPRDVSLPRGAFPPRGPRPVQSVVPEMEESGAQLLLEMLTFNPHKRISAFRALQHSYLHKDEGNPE
# [44] = molecular target: Casein kinase I isoform gamma-2 (Homo sapiens) (UniProt P78368); details: Compound concentration 1000.0 nM
# Casein kinase I isoform gamma-2 (Homo sapiens), sequence (P78368 whole entry, looked up, canonical isoform): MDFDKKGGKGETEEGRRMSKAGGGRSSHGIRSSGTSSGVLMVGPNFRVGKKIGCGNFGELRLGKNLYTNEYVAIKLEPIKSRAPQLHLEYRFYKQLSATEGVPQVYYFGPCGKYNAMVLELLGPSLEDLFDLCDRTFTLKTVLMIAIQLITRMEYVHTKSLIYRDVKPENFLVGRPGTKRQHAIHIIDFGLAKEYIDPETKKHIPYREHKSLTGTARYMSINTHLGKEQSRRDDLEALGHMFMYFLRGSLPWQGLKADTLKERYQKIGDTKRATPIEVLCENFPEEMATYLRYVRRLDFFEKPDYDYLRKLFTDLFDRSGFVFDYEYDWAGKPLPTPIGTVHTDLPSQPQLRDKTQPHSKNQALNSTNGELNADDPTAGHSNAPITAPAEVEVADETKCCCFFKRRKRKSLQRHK
# [45] = molecular target: Cyclin-dependent kinase 16 (Homo sapiens) (UniProt Q00536); details: Compound concentration 1000.0 nM
# Mitogen-activated protein kinase kinase kinase kinase 2 (Homo sapiens), sequence (Q12851 whole entry): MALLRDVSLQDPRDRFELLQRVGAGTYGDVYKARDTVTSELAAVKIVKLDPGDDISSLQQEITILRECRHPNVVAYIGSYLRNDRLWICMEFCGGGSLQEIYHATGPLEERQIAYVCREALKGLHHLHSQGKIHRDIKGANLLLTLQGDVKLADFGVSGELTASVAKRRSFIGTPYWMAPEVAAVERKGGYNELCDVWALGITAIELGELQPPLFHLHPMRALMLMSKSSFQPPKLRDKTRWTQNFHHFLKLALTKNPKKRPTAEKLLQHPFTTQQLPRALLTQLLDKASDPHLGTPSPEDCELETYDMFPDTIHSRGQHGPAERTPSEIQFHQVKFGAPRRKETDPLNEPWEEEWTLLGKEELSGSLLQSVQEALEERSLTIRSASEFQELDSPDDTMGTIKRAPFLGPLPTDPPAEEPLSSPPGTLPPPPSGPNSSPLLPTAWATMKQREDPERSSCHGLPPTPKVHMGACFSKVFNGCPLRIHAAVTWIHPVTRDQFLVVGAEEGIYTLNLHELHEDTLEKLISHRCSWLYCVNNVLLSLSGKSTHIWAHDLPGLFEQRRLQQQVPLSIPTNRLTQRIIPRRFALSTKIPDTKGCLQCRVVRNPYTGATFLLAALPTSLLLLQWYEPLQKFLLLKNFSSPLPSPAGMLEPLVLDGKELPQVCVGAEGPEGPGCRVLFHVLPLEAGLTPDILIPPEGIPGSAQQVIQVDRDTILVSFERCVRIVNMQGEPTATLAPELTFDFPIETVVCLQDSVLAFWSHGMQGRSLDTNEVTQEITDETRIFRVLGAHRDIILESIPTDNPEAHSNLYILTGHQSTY
smiles,measurement,setting,value
Cn1cncc1[C@@](O)(COc1ccc(C#N)cc1-c1ccc(OC(F)(F)F)cc1)c1ccc(C#N)cc1 [A-108],residual activity,[1],100%
same,residual activity,[2],90%
same,residual activity,[3],84%
same,residual activity,[4],100%
same,residual activity,[5],100%
same,residual activity,[6],95%
same,residual activity,[7],6%
same,residual activity,[8],100%
same,residual activity,[9],98%
same,inhibition,[10],-3.25%
same,residual activity,[11],93%
same,residual activity,[12],100%
same,residual activity,[13],98%
same,residual activity,[14],100%
same,residual activity,[15],100%
same,residual activity,[16],89%
same,residual activity,[17],100%
same,residual activity,[18],100%
same,residual activity,[19],97%
same,residual activity,[20],100%
same,residual activity,[21],91%
same,residual activity,[22],89%
same,residual activity,[23],64%
same,residual activity,[24],81%
same,residual activity,[25],100%
same,residual activity,[26],100%
same,residual activity,[27],64%
same,residual activity,[28],100%
same,residual activity,[29],100%
same,residual activity,[30],85%
same,residual activity,[31],64%
same,residual activity,[32],93%
same,residual activity,[33],100%
same,residual activity,[34],100%
same,inhibition,[35],23.1%
same,residual activity,[36],97%
same,residual activity,[37],100%
same,residual activity,[38],85%
same,residual activity,[39],100%
same,residual activity,[40],88%
same,residual activity,[41],92%
same,residual activity,[42],84%
same,residual activity,[43],92%
same,residual activity,[44],64%
same,residual activity,[45],85%
Cn1cncc1[C@](O)(COc1ccc(C#N)cc1-c1ccc(OC(F)(F)F)cc1)c1ccc(C#N)cc1 [ABT-100],residual activity,[1],100%
same,residual activity,[2],100%
same,residual activity,[3],79%
same,residual activity,[4],99%
same,residual activity,[5],62%
same,residual activity,[6],91%
same,residual activity,[7],100%
same,residual activity,[8],93%
same,residual activity,[9],95%
same,inhibition,[10],16.4%
same,residual activity,[11],80%
same,residual activity,[12],100%
same,residual activity,[13],85%
same,residual activity,[14],100%
same,residual activity,[15],72%
same,residual activity,[16],52%
same,residual activity,[17],100%
same,residual activity,[18],86%
same,residual activity,[19],100%
same,residual activity,[20],81%
same,residual activity,[21],91%
same,residual activity,[22],62%
same,residual activity,[23],78%
same,residual activity,[24],100%
same,residual activity,[25],62%
same,residual activity,[26],77%
same,residual activity,[27],75%
same,residual activity,[28],93%
same,residual activity,[29],77%
same,residual activity,[30],100%
same,residual activity,[31],90%
same,residual activity,[32],88%
same,residual activity,[33],100%
same,residual activity,[34],100%
same,inhibition,[35],0.0774%
same,residual activity,[36],60%
same,residual activity,[37],100%
same,residual activity,[38],94%
same,residual activity,[39],84%
same,residual activity,[40],83%
same,residual activity,[41],92%
same,residual activity,[42],64%
same,residual activity,[43],100%
same,residual activity,[44],78%
same,residual activity,[45],100%
